# Test results taken from ChEMBL document CHEMBL2163345, “Part II. Development of novel colchicine-derived immunosuppressants with improved pharmacokinetic properties” (Bioorg Med Chem Lett, 2012).
# The source made the active and inactive calls. The calls are words filed in the database; no cut-off is given here.
# Experiments:
# Splenocyte = test: Immunosuppressant activity in mouse splenocytes by mixed-leukocyte reaction assay; type: functional, cell-based
# [1] = Immunosuppressant activity in chicken T-lymphocyte activated splenic lymphocytes assessed as inhibition of ConA-induced cell proliferation by [3H]thymidine incorporation assay; type: functional; settings: Gallus gallus
# [2] = Immunosuppressant activity in chicken B-lymphocyte activated splenic lymphocytes assessed as inhibition of LPS-induced cell proliferation by [3H]thymidine incorporation assay; type: functional; settings: Gallus gallus
# [3] = Solubility of the compound in presence of 20% serum; type: physicochemical
# [4] = Oral bioavailability in BALB/c mouse at 1 mg/kg; type: ADME, organism-based; settings: in vivo
# T-cell = test: Antiproliferative activity against ConA-induced T cells; type: functional, cell-based
# [5] = Mean residence time (infinity) in BALB/c mouse at 1 mg/kg, po; type: ADME, organism-based; design: dose 1 mg/kg, route oral; settings: in vivo
# [6] = Half life in BALB/c mouse at 1 mg/kg, po; type: ADME, organism-based; design: dose 1 mg/kg, route oral; settings: in vivo
# [7] = Volume of distribution at steady state in BALB/c mouse at 0.5 mg/kg, iv; type: ADME, organism-based; design: dose 0.5 mg/kg, route intravenous; settings: in vivo, read-out: Vdss
# [8] = Antiproliferative activity against T cells; type: cell-based; settings: t-cell
# [9] = Antiproliferative activity against bone marrow-derived dendritic cells; type: cell-based; settings: dendritic cell
# Dendritic cell = test: Antiproliferative activity against LPS-induced bone marrow-derived dendritic cells; type: functional, cell-based
# [10] = Clearance in BALB/c mouse at 0.5 mg/kg, iv; type: ADME, organism-based; design: dose 0.5 mg/kg, route intravenous; settings: in vivo
# [11] = AUC (0 to infinity) in BALB/c mouse at 1 mg/kg, po; type: ADME, organism-based; design: time infinity, dose 1 mg/kg, route oral; settings: plasma
# [12] = Antiproliferative activity against B cells; type: cell-based; settings: b-cell
# Mus musculus [13] = species: Mus musculus; test: Immunosuppressant activity in C57BL/6 mouse assessed as inhibition of zymosan A-induced arthritis; type: functional, organism-based
# B-cell = test: Antiproliferative activity against LPS-induced B cells; type: functional, cell-based
# BMDM = test: Antiproliferative activity against LPS-induced BMDM cells; type: functional, cell-based
# [14] = Tmax in BALB/c mouse at 1 mg/kg, po; type: ADME, organism-based; design: dose 1 mg/kg, route oral; settings: in vivo
# [15] = AUC (0 to infinity) in BALB/c mouse at 0.5 mg/kg, iv; type: ADME, organism-based; design: time infinity, dose 0.5 mg/kg, route intravenous; settings: plasma
# [16] = Cmax in BALB/c mouse at 1 mg/kg, po; type: ADME, organism-based; design: dose 1 mg/kg, route oral; settings: in vivo
# [17] = Antiproliferative activity against BMDM cells; type: cell-based
# [18] = Mean residence time (infinity) in BALB/c mouse at 0.5 mg/kg, iv; type: ADME, organism-based; design: dose 0.5 mg/kg, route intravenous; settings: in vivo
# Mus musculus [19] = test: Immunosuppressant activity in C57BL/6 mouse assessed as inhibition of carrageenan-induced paw edema; type: functional, organism-based
# Mus musculus [20] = species: Mus musculus; test: Immunosuppressant activity in C57BL/6 mouse assessed as inhibition of DNCB-induced cytokine release by local lymph node assay; type: functional, organism-based
# [21] = Half life in BALB/c mouse at 0.5 mg/kg, iv; type: ADME, organism-based; design: dose 0.5 mg/kg, route intravenous; settings: in vivo
# [22] = Mus musculus, Splenocyte, read-out: IC50
smiles,measurement,setting,value
C=C(C)/C=C(\CC)C(=O)N[C@H]1CCc2cc(OC)c(OC)c(OC)c2-c2ccc(SC)c(=O)cc21,IC50,Splenocyte; [22],31 nM
COc1cc2c(c(OC)c1OC)-c1ccc([S+](C)[O-])c(=O)cc1[C@@H](NC(=O)C1CC1C)CC2 (stereo not given in full),IC50,Splenocyte; splenocyte,Not Active
COc1cc2c(c(OC)c1OC)-c1ccc(SC)c(=O)cc1[C@H](NC(=O)C1CC1C)CC2 (stereo not given in full),IC50,Splenocyte; splenocyte,Not Active
COc1cc2c(c(OC)c1OC)-c1cccc(=O)cc1[C@@H](NC(=O)C1CC1C)CC2 (stereo not given in full),IC50,Splenocyte; splenocyte,Not Active
COc1cc2c(c(OC)c1OC)-c1ccc(SC)c(=O)cc1[C@@H](NC(=O)C1NC1C)CC2 (stereo not given in full),IC50,Splenocyte; [22],46 nM
C=CCC(=O)N[C@H]1CCc2cc(OC)c(OC)c(OC)c2-c2ccc(SC)c(=O)cc21,IC50,Splenocyte; [22],702 nM
C=CC(=C)C(=O)N[C@H]1CCc2cc(OC)c(OC)c(OC)c2-c2ccc(SC)c(=O)cc21,IC50,Splenocyte; [22],112 nM
C=C(CC)C(=O)N[C@H]1CCc2cc(OC)c(OC)c(OC)c2-c2ccc(SC)c(=O)cc21,IC50,Splenocyte; [22],86 nM
C/C=C/C(=O)N[C@H]1CCc2cc(OC)c(OC)c(OC)c2-c2ccc(SC)c(=O)cc21,IC50,Splenocyte; [22],67 nM
C/C=C/C=C/C(=O)N[C@H]1CCc2cc(OC)c(OC)c(OC)c2-c2ccc(SC)c(=O)cc21,IC50,[1],0.0407 µg/mL
same,IC50,Splenocyte; [22],4 nM
same,IC50,[2],0.0057 µg/mL
COc1cc2c(c(OC)c1OC)-c1ccc(SC)c(=O)cc1[C@@H](NC(=O)C1C(C)N1C)CC2 (stereo not given in full),IC50,Splenocyte; [22],38 nM
COc1cc2c(c(OC)c1OC)-c1ccc(S(C)(=O)=O)c(=O)cc1[C@@H](NC(=O)C1CC1C)CC2 (stereo not given in full),IC50,Splenocyte; splenocyte,Not Active
C/C=C/CC(=O)N[C@H]1CCc2cc(OC)c(OC)c(OC)c2-c2ccc(SC)c(=O)cc21,IC50,Splenocyte; [22],1670 nM
COc1cc2c(c(OC)c1OC)-c1ccc(OC)c(=O)cc1[C@@H](NC(C)=O)CC2 [COLCHICINE],solubility,[3],300 µM
COc1cc2c(c(OC)c1OC)-c1ccc(OC)c(=O)cc1[C@@H](NC(=O)C1CC1C)CC2 (stereo not given in full),IC50,Splenocyte; [22],1250 nM
COc1cc2c(c(OC)c1OC)-c1ccc(SC)c(=O)cc1[C@@H](NC(=O)C1CC1C)CC2 (stereo not given in full),bioavailability,[4],67.3%
same,Activity,T-cell,Active
same,MRT inf,[5],2.2 h
same,half-life,[6],2.9 h
same,Vd,[7],1.6 L/kg
same,Activity,[8],Non-toxic
same,Activity,[9],Non-toxic
same,Activity,Dendritic cell,Active
same,clearance,[10],41.7 mL/min/kg
same,AUC(0-inf),[11],269 ng·h/mL
same,Activity,[12],Non-toxic
same,inhibition,Mus musculus [13],Dose-dependent effect
same,Activity,B-cell,Active
same,Activity,BMDM,Active
same,Tmax,[14],0.25 h
same,AUC(0-inf),[15],200 ng·h/mL
same,Cmax,[16],254 ng/mL
same,IC50,[1],0.031 µg/mL
same,Activity,[17],Non-toxic
same,MRT inf,[18],0.6 h
same,IC50,Splenocyte; [22],5 nM
same,inhibition,Mus musculus [19],Dose-dependent effect
same,inhibition,Mus musculus [20],Active
same,IC50,[2],0.0059 µg/mL
same,half-life,[21],2.9 h
COc1cc2c(c(OC)c1OC)-c1ccc(SC)c(=O)cc1[C@@H](NC(=O)C1OC1C)CC2 (mixture of isomers),IC50,Splenocyte; [22],119 nM
COc1cc2c(c(OC)c1OC)-c1ccc(SC)c(=O)cc1[C@@H](NC(=O)c1cccc(CO[N+](=O)[O-])c1)CC2,solubility,[3],10 µM
COc1cc2c(c(OC)c1OC)-c1ccc(SC)c(=O)cc1[C@@H](NC(=O)CCCO[N+](=O)[O-])CC2,solubility,[3],100 µM
